Test results: the NIST ThermoML archive (doi:10.1016/j.jct.2013.07.002)

Conditions: 101.33 kPa, Liquid; for viscosity: Concentric cylinders viscometry; for thermal conductivity: Hot wire method

OCCO [1,2-ethanediol]
Conditions	thermal conductivity [W/m/K]	viscosity [mPa·s]
283.15 K	0.243	35.44
288.15 K	–	28
293.15 K	–	21.89
298.15 K	–	17.25
303.15 K	0.246	13.86
308.15 K	–	11.64
313.15 K	–	9.62
323.15 K	0.249	7.21
343.15 K	0.259	–
